Measured values reported in US20170334899A1, “AMINO-SUBSTITUTED ISOTHIAZOLES” (Bayer Pharma Aktiengesellschaft, priority 2014, published 2017).

Assays:
Assay type in all cases: cell-based
[1] = tested on: human cervical tumor cell line HeLa (ATCC CCL-2); test: SAC-Formation - Paclitaxel-Induced Assay; conditions: Homo sapiens, HeLa, 24 h, HeLa cells, paclitaxel 0.05 μM, test range 0.005 μM-20 μM, read-out: IC50 [mol/l] SAC-Formation - Paclitaxel-Induced Assay
How it was run: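 HeLa cells incubated overnight at 37° C, then given paclitaxel (0.05 μM final) plus test compound (0.005–20 μM, 0.5% DMSO) together for 24 h at 37° C. Fixed cells stained for phospho-histone H3 Ser10 (mitotic cells) and Hoechst 33342 (cell count); imaging-derived mitotic index fitted by four-parameter Hill equation.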

HeLa-MaTu-ADR = test: Proliferation assay (crystal violet), HeLa-MaTu-ADR; conditions: 96 h; HeLa-MaTu-ADR cells; 4 days incubation; crystal violet staining; read-out: IC50 inhibition of proliferation, HeLa-MaTu-ADR
Protocol: (§1) Cultivated tumor cells (cells were ordered from ATCC, except HeLa-MaTu and HeLa-MaTu-ADR, which were ordered from EPO-GmbH, Berlin) were plated at a density of 1000 to 5000 cells/well, depending on the growth rate of the respective cell line, in a 96-well multititer plate in 200 μL of their respective growth medium supplemented 10% fetal calf serum. After 24 hours, the cells of one plate (zero-point plate) were stained with crystal violet (see below), while the medium of the other plates was replaced by fresh culture medium (200 μl), to which the test substances were added in various concentrations (0 μM, as well as in the range of 0.001-10 μM; the final concentration of the solvent dimethyl sulfoxide was 0.5%). The cells were incubated for 4 days in the presence of test substances. Cell proliferation was determined by staining the cells with crystal violet: the cells were fixed by adding 20 μl/measuring point of an 11% glutaric aldehyde solution for 15 minutes at room temperature. After three washing cycles of the fixed cells with water, the plates were dried at room temperature. The cells were stained by adding 100 μl/measuring point of a 0.1% crystal violet solution (pH 3.0). After three washing cycles of the stained cells with water, the plates were dried at room temperature. The dye was dissolved by adding 100 μl/measuring point of a 10% acetic acid solution. Absorbtion was determined by photometry at a wavelength of 595 nm. The change of cell number, in percent, was calculated by normalization of the measured values to the aborbtion values of the zero-point plate (=0%) and the absorbtion of the untreated (0 μm) cells (=100%). The IC50 values were determined by means of a 4 parameter fit.

NCI-H460 = test: Proliferation assay (crystal violet), NCI-H460; conditions: Homo sapiens, 96 h; NCI-H460 cells; 4 days incubation; crystal violet staining; read-out: IC50 inhibition of proliferation, NCI-H460
Protocol: as §1

DU145 = test: Proliferation assay (crystal violet), DU145; conditions: Homo sapiens, DU-145, 96 h; DU145 cells; 4 days incubation; crystal violet staining; read-out: IC50 inhibition of proliferation, DU145
Protocol: as §1

Caco-2 = test: Proliferation assay (crystal violet), Caco-2; conditions: Homo sapiens, 96 h; Caco-2 cells; 4 days incubation; crystal violet staining; read-out: IC50 inhibition of proliferation, Caco2
Protocol: as §1

B16F10 = test: Proliferation assay (crystal violet), B16F10; conditions: Mus musculus, B16-F10, 96 h; B16F10 cells; 4 days incubation; crystal violet staining; read-out: IC50 inhibition of proliferation, B16F10
Protocol: as §1

In the case of Cc1nsc(Nc2cncc(C(F)(F)F)n2)c1C(=O)Nc1ccc(OC2CCN(CC(F)(F)F)CC2)nc1 [Example 16, 3-Methyl-N-(6-{[1-(2,2,2-trifluoroethyl)piperidin-4-yl]oxy}pyridin-3-yl)-5-{[6-(trifluoromethyl)pyrazin-2-yl]amino}-1,2-thiazole-4-carboxamide], the IC50 [1] is reported as 420 nM, the IC50 (HeLa-MaTu-ADR) is reported as 290 nM and the IC50 (NCI-H460) is reported as 150 nM. It also gave an IC50 (DU145) of 720 nM, an IC50 (Caco-2) of 240 nM and an IC50 (B16F10) of 290 nM.
For Cc1nsc(Nc2cnc3ccccc3n2)c1C(=O)Nc1ccc(OC2CCN(C(=O)OC(C)(C)C)CC2)nc1 [Example 18, tert-Butyl 4-{[5-({[3-methyl-5-(quinoxalin-2-ylamino)-1,2-thiazol-4-yl]carbonyl}-amino)pyridin-2-yl]oxy}piperidine-1-carboxylate], the IC50 [1] was 59 nM, the IC50 (HeLa-MaTu-ADR) was 380 nM and the IC50 (NCI-H460) was 640 nM. The IC50 (DU145) was 910 nM, the IC50 (Caco-2) was 270 nM and the IC50 (B16F10) was 550 nM.
CCN(CC)CCNC(=O)c1cccc(NC(=O)c2c(C)nsc2Nc2cnccn2)c1 [Example 247, N-(3-{[2-(diethylamino)ethyl]carbamoyl}phenyl)-3-methyl-5-(pyrazin-2-ylamino)-1,2-thiazole-4-carboxamide] gave an IC50 [1] of 140 nM.
